Measurements published in the supplement of paper PMC10307832.

Experiments:
Test in all cases: relative viability (nuclei count vs DMSO), 5 days (fraction); higher = more cells survive
[1] = compound: O=C(/C=C/c1ccccc1)NC(NC(=S)Nc1cccc2cccnc12)C(Cl)(Cl)Cl [Salubrinal] + CC(C)C[C@H](NC(=O)[C@H](Cc1ccccc1)NC(=O)c1cnccn1)B(O)O [Bortezomib] (partner 0.002 µM)
How it was run: (§1)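 Lung cancer cell lines, seeded in 1536-well plates, were treated the following day by pin tool with a single drug or with five library-drug doses (not always all listed) in √10 steps on top of a fixed anchor-drug dose. Cells were fixed and nuclei stained in one step after 5 days, and nuclei were counted. Relative viability is the nuclei count for treated wells divided by that for vehicle wells, reported as medians of duplicate plates.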

[2] = compound: Cc1ccc2nc(NCCN)c3ncc(C)n3c2c1 + C[C@@H](Oc1cc(-c2cnn(C3CCNCC3)c2)cnc1N)c1c(Cl)ccc(F)c1Cl [Crizotinib] (partner 1 µM)
How it was run: as §1

[3] = compound: Cc1ccc2nc(NCCN)c3ncc(C)n3c2c1 + CC(C)C[C@H](NC(=O)[C@H](Cc1ccccc1)NC(=O)c1cnccn1)B(O)O [Bortezomib] (partner 0.002 µM)
How it was run: as §1

[4] = compound: O=C(/C=C/c1ccccc1)NC(NC(=S)Nc1cccc2cccnc12)C(Cl)(Cl)Cl [Salubrinal] + NC(=O)Nc1cc(-c2cccc(F)c2)sc1C(=O)N[C@H]1CCCNC1 [AZD7762] (partner 0.2 µM)
How it was run: as §1

Cell Line	relative viability ([1]; first compound 0.08 µM)	relative viability ([1]; first compound 0.253 µM)	relative viability ([1]; first compound 0.8 µM)	relative viability ([1]; first compound 2.53 µM)	relative viability ([1]; first compound 8 µM)	relative viability ([2]; first compound 0.04 µM)	relative viability ([2]; first compound 0.1265 µM)	relative viability ([2]; first compound 0.4 µM)	relative viability ([2]; first compound 1.265 µM)	relative viability ([2]; first compound 4 µM)	relative viability ([3]; first compound 0.04 µM)	relative viability ([3]; first compound 0.1265 µM)	relative viability ([3]; first compound 0.4 µM)	relative viability ([3]; first compound 1.265 µM)	relative viability ([3]; first compound 4 µM)	relative viability ([4]; first compound 0.08 µM)	relative viability ([4]; first compound 0.253 µM)	relative viability ([4]; first compound 0.8 µM)	relative viability ([4]; first compound 2.53 µM)	relative viability ([4]; first compound 8 µM)
201T	1.14	1.06	1.14	1.09	1.11	1.07	1.06	1.07	1.09	1.06	1.11	1.2	1.09	1.11	1.11	0.627	0.616	0.741	0.648	0.637
A549						0.826	0.744	0.753	0.547	0.485										
A-427	0.96	0.908	1.12	0.961	1.06	1.01	1.01	0.835	0.966	0.942	1.05	1.15	0.929	0.978	0.962	0.892	0.716	0.755	0.802	0.67
ABC-1	0.322	0.35	0.363	0.303	0.281	1.09	1.04	1.23	0.988	0.68	0.402	0.223	0.337	0.282	0.263	0.97	0.998	0.948	0.898	0.825
BEN	0.716	0.721	0.979	0.941	0.909	0.944	0.59	0.872	0.798	0.842	0.929	0.789	0.849	0.834	0.868	0.642	0.727	0.802	0.712	0.72
CAL-12T	0.983	0.899	1.54	0.915	0.998	0.787	0.716	0.725	0.603	0.344	1.03	0.889	0.9	0.978	0.776	0.625	0.657	0.741	0.577	0.619
COR-L23	1.16	0.786	1.12	0.998	0.809	0.737	0.608	0.628	0.572	0.541	1.07	0.913	0.928	0.989	0.91					
COR-L 105	0.756	0.829	0.86	0.816	0.604	0.797	0.721	0.887	0.704	0.422	0.89	0.867	0.723	0.853	0.737					
Calu-6	1.18	0.856	1.11	1.01	0.918	0.803	0.776	0.794	0.77	0.426	1.08	0.891	1.03	0.912	0.603					
ChaGo-K-1	1.06	0.759	1.6	1.2	1.03	1.17	1.03	1.15	0.989	0.922	1.01	1	1.01	0.973	0.607	0.978	0.694	1	0.886	0.707
EBC-1	0.719	0.544	0.504	0.501	0.466	0.219	0.204	0.206	0.207	0.17	0.549	0.526	0.486	0.406	0.31					
EKVX	1.14	0.821	1.17	1.06	1.02	0.921	0.794	1.02	1.05	0.903	0.998	0.994	0.996	1.17	0.951	0.78	0.591	0.999	0.721	0.757
EMC-BAC-2	1.16	0.974	1.09	1.16	1.17	0.761	0.728	0.735	0.733	0.775	1.12	1.12	0.957	1.13	1.05	1.1	1.06	1.31	1.16	1.13
EPLC-272H	0.884	0.756	1.11	1.1	0.855	0.948	0.846	1.06	0.948	0.91	0.914	0.782	0.911	0.805	0.97	0.229	0.191	0.304	0.229	0.156
H3255	0.816	0.826	1.23	0.767	0.761	0.939	0.743	0.846	0.788	0.694	0.976	0.745	0.695	0.943	0.691	0.967	0.786	1.03	0.87	0.859
HARA	1.14	1.01	1.16	1.13	1.06	0.951	0.916	1.02	0.746	0.917	1.14	1.11	1.13	1.06	1.1	0.374	0.254	0.25	0.437	0.196
HCC-15	1.13	0.804	1.14	1.15	0.997	0.791	0.8	0.779	0.742	0.693	1.02	1	0.864	0.975	0.783	1.4	1.22	1.28	1.25	1.25
HCC-44	0.799	0.817	0.997	0.922	0.86	0.851	0.827	0.768	0.828	0.835	0.93	0.897	0.806	0.882	0.922	1.02	1.01	1.02	1	0.977
